Structures can show the parent of a compound that is named as a salt.
What was measured:
[1] = target: Beta-1 adrenergic receptor (Cavia porcellus, UniProt B0FL73); test: Compound was evaluated for competitive antagonism of beta-1 adrenergic receptor in guinea pig atria measured as pA2 (-log KB); type: functional; details: read-out: pA2 (converted)
[2] = target: Beta-2 adrenergic receptor (Rattus norvegicus) (UniProt P10608); test: Compound was evaluated for competitive antagonism of beta-2 adrenergic receptor in rat uterus measured as pA2 (-log KB)
Beta-2 adrenergic receptor (Rattus norvegicus), sequence (P10608 whole entry, looked up): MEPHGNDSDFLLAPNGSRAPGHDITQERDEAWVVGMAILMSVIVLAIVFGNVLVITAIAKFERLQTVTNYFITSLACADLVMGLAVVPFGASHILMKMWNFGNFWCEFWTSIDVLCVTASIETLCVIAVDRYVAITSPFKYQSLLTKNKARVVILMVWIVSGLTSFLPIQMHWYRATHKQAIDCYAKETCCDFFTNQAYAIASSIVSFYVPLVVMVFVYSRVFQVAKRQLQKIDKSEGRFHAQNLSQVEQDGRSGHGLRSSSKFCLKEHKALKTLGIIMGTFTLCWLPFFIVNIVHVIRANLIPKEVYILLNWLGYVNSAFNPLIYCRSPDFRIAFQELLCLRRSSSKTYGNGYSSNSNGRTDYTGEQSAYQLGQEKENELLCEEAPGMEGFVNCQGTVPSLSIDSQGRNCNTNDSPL

Beta-1 adrenergic receptor, sequence (B0FL73 whole entry): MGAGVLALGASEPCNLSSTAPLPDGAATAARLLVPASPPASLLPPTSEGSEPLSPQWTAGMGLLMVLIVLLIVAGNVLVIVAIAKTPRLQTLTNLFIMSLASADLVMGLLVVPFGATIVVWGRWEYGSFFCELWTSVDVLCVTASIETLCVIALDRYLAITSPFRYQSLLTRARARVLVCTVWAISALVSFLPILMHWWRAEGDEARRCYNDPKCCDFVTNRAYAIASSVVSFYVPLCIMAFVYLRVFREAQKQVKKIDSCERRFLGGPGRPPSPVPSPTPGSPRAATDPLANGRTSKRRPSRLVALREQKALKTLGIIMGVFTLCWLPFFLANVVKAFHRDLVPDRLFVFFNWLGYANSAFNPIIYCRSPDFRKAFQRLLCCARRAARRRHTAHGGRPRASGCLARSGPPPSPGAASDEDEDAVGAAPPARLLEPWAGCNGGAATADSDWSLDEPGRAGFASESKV

Structure (SMILES) | Kb [1] [nM] | Kb [2] [nM]
CC(C)NCC(O)COC1=CC(=O)C(=O)c2ccccc21 (centres undefined) | 50.1 | 29.5
CC(C)NCC(O)COc1ccc(O)c2ccccc12 (centres undefined) [4-HYDROXYPROPRANOLOL SULFATE] | 5.75 | 2.4

Source: ChEMBL document CHEMBL1122684, “The 3,4-catechol derivative of propranolol, a minor dihydroxylated metabolite” (J Med Chem, 1984)
